For data set [1], the system named is BV-2 microglial cells. The data set can be described thus: Cellular pharmacokinetics: uptake of metformin into BV-2 microglia (LC-MS/MS). The conditions noted are these: BV-2 cells.
Text: (§1) The Michaelis-Menten equation with one saturable component was fit to the corrected uptake rate and the estimated Km and Vmax values are presented.
In data set [2] the test system is BV-2 microglial cells. The data set can be described thus: LPS-induced nitrite release in BV-2 microglial cells (Griess reagent). The data set is classed as cell-based. The conditions noted are these: BV-2 cells; for IC50: pre-incubation 1 h (0.03-2.0 mM), then LPS 24 h.
Experimental: (§2) In brief, 50 μl cell supernatants were mixed with 50 μl Griess regent in 96-well-plate and reacted for about 5–10 min at room temperature. Read plate at 540 nm by a Microplate reader (Infinite M200, Molecular Device).
Supernatants were collected for nitrite analysis.
Data set [3] deals with AMPK. The conditions noted are these: initial screening; ref Zhen et al., 2019; cited from earlier work.
Data set [4] has as its system AMPK. The data set can be described thus: AMPK phosphorylation (p-AMPK Thr 172) by immunoblot in BV-2 microglial cells. In kind it is cell-based. The note with it: for onset time of AMPK activation: 1 mM, time course; for concentration at which activation of AMPK (p-AMPK) was observed (lowest effective): 1 h incubation. How it is done: When reached 80% confluence, cells were seeded in 12-well or 6-well plates to perform further experiments.
Background: Immunoblotting shows a protein as a band on a membrane.

The test system of data set [5] is primary rat cortical neurons. The data set can be described thus: Oxygen and glucose deprivation (OGD) of primary cortical neurons, MTT viability. In kind it is cell-based. The conditions noted are these: 0.5 and 1 mM, 24 h pre-treatment, OGD 3 h, reperfusion 24 h.
Experimental: The culture medium was replenished with Neurobasal medium (Life Technologies) supplemented with 2% B27 (Life Technologies) 5 h after isolation, and half of the culture media was changed every 2 days, after 6 days of culture, and the neurons were used for further experiments.
Cells were transferred to a hypoxia incubator with 1% oxygen and 5% CO2 for 3 h. […] Control cells were not submitted to OGD and were maintained under normal conditions.
The conditions of data set [6]: rat plasma, 50 mg/kg i.p.
Data set [7] has as its system rat primary cortical neurons. The conditions noted are these: microglia treated with 1 mM, LPS 24 h; neurons 24 h.
Experimental: Primary rat cortical microglia cells were prepared from newborn to 2–3 days-old SD strains. […] The supernatant was discarded after centrifuging at 1,100 × rpm for 10 min, the pellet was resuspended, and cortices were fully dissociated by pipetting, the cell suspension was filtered through a 70 μm mesh and transferred into a 75-cm^2 culture flask with poly-L-lysine (PLL, Sigma-Aldrich) coated. Flasks were incubated at 37°C and 5% CO2, and half of the culture media were changed every 2 days, after 2 weeks of culture, primary microglia were harvested by shaking the flask for 2 h at 200 × rpm, and then seeded into new plates pre-coated with PLL. […]
The neuron culture medium was collected and LDH was measured by the LDH assay kit (BioAssay Systems) according to the manufacturer’s instructions.
Data were presented as mean ± SD, statistical analysis was performed with one-way ANOVA followed by a Dunnett’s post hoc tests, ^∗∗ p < 0.01 versus LPS group; ^## p < 0.01, versus LPS with SHY-treated group. […] Results are expressed as mean ± SD (n = 5). […] Cell viability was analyzed by MTT assay, results are expressed as mean ± SD (n = 8). […]
The subject of data set [8] is BV-2 microglial cells. The conditions noted are these: BV-2 cells, 1 mM, 1 h pre-incubation, LPS 200 ng/ml.
Experimental: as §2
Data were presented as mean ± SD, statistical analysis was performed with one-way ANOVA followed by a Dunnett’s post hoc tests, ^∗∗ p < 0.01 versus LPS group; ^## p < 0.01, versus LPS with SHY-treated group. […] Results are expressed as mean ± SD (n = 5). Data are presented as mean ± SD, statistical analysis was performed with one-way ANOVA, followed by a Dunnett’s post hoc tests, ^∗∗ p < 0.01 versus LPS group; ^# p < 0.05, versus LPS with SHY-treated group.
The subject of data set [9] is tMCAO rats. The note with it: 50 mg/kg/day i.p., four weeks after tMCAO.
For data set [10], the system named is AMPK. Also noted: method as in Ma et al., 2014. The conditions noted are these: ref Ma et al., 2014; cited from earlier work.
Data set [11] can be described thus: in vivo. The conditions noted are these: male, Sprague-Dawley, rat, brain, 50 mg/kg.
A short description of data set [12]: in vivo. The note with it: male, Sprague-Dawley, rat, plasma, ip, 50 mg/kg.
Data set [13] can be described thus: in vitro. The note with it: mouse, BV-2 microglial cells.
Text: as §1
The mark [14] stands for this setting: 15 min uptake, Michaelis-Menten fit.
The mark [15] stands for this setting: rat brain, metformin measured, 50 mg/kg i.p.

Counter-ions that a name gives are not always drawn. Like-named read-outs stand apart in the source and are kept apart here.

Usually Km stands for the substrate concentration at which the rate is half of its maximum. What is called IC50 is the concentration that inhibits the measured activity by half. High values mean weaker potency in that assay, low ones greater potency in that assay. By Cmax is commonly meant the highest concentration seen after dosing. For the compound `CN(C)C(=N)NC(=N)N.O=C(O)[C@H](O)[C@@H](O)CO` [SHY-01, metformin threonate], the “accumulation of metformin compared with the same concentration of metformin hydrochloride” value in [1] was “more rapid”. Also, the “Vmax of metformin uptake” value in data set [1] (setting [14]) stood at 9.5 ± 1.2 nmol/min/mg protein. The “intracellular metformin contents compared with metformin hydrochloride” value in data set [1] (LC-MS/MS) is given as “elevated intracellular metformin contents”. Also, in [1] (read-out: Km of metformin uptake, 15 min uptake, Michaelis-Menten fit), the Km was determined as 7.2 ± 1.5 mM. Further, inhibition in data set [2] was half-maximal at 302 µM (IC50). In addition, the “potency on AMPK activation among the metformin salts screened” value in data set [3] is “strongest potency”. In addition, in data set [4] (BV-2 cells, 0.3 mM, 1 h), the “p-AMPK level compared to the same concentration of metformin hydrochloride” value is recorded as “significantly higher”. In addition, in data set [4] (BV-2 cells, 1 mM pre-incubation, LPS 200 ng/ml 0-4 h), the “effect on LPS-reduced AMPK phosphorylation” value is “significantly reverse”. Besides, in [4] (BV-2 cells), the “onset time of AMPK activation” value was found to be 0.5 h and the “concentration at which activation of AMPK (p-AMPK) was observed (lowest effective)” value was 0.3 mM. Moreover, in [4] (discussion statement), the “time to activation of AMPK after treatment” value is on record as not above 30 min. In addition, the “OGD-induced neuronal injury (cell viability, MTT)” value in data set [5] is recorded as “significantly prevented”. Moreover, in [6], the “half-life (t 1/2)” value is recorded as 8.22 ± 5.52 h and the “maximum plasma concentration (Cmax)” value was found to be 11.29 ± 3.9 ng/mL. Also, in data set [6] (metformin measured), the “AUC (0−t)” value is 11470 ± 35 ng·h/mL, the “AUC (0−∞)” value turned out to be 12240 ± 40 ng·h/mL, the CLz is listed as 4,116.73 ± 422.20 ml/hr/kg and the Cmax came to 11300 ± 3900 ng/mL. Also, in data set [6] (metformin measured), the “MRT (0−t)” value worked out at 2.69 ± 0.45 H, the “MRT (0−∞)” value was determined as 5.06 ± 2.54 H, the Vz is 50,055.01 ± 36,787.23 ml/kg and the “t 1/2” value is recorded as 8.22 ± 5.524 H. In addition, the t max in [6] (metformin measured) stood at 0.5 H. The “LDH release of neurons in response to conditioned medium of LPS-activated microglia, versus control or metformin hydrochloride” value in [7] is given as “remarkably decrease”. The “inhibition of LPS-induced pro-inflammatory cytokine expression (TNF-α, IL-1β, iNOS) compared with metformin hydrochloride” value in data set [8] was “stronger effect”. Also, the “metformin concentration in the brain” value (1 h after 50 mg/kg i.p.) amounted to 0.32 ± 0.023 µg/g. Besides, the “metformin concentration in the brain” value (2 h after 50 mg/kg i.p.) worked out at 0.25 ± 0.032 µg/g. In addition, under setting [15], the “AUC (0−t)” value turned out to be 1870 ± 230 ng·h/mL, the “AUC (0−∞)” value worked out at 2050 ± 180 ng·h/mL, the maximum concentration (Cmax) stood at 520 ± 110 ng/mL and the “MRT (0−t)” value amounted to 5.73 ± 0.63 h. In addition, under setting [15], the “MRT (0−∞)” value is listed as 8.19 ± 0.66 h and the t max is 0.5 h. In data set [9], the “Rope climbing test, difference between SHY-01 and metformin hydrochloride” value is given as “did not differ”; the “atrophic volume of the ischemic brain versus vehicle” value is on record as “effectively reduced”; the “body weight changes, difference between SHY-01 and metformin hydrochloride” value is listed as “did not differ”; the “brain atrophy compared with metformin hydrochloride” value is listed as “more potent reduction”. In data set [9], the “neurologic score compared with metformin hydrochloride” value is recorded as “significantly better improvement” and the “spatial learning in the Morris water maze test compared with metformin hydrochloride” value is listed as “significantly better improvement”.

As for `c1cc(-c2cnn3cc(-c4ccc(OCCN5CCCCC5)cc4)cnc23)ccn1` [compound C], in data set [2] (compound C 10 μM 1 h pre-incubation, SHY-01 1 mM, LPS 200 ng/ml), the “effect on the inhibitory effect of SHY-01 on LPS-induced nitrite, TNF-α and IL-1β” value is “abolished”.

As a reminder, the AUC(0-inf) is total exposure, with the tail of the curve extrapolated. For orientation: AUC(0-t) means the area under the concentration-time curve up to a stated or last time point. Low values mean low exposure, high ones high exposure. One may read the MRT inf as a mean duration of stay, worked out from the concentration-time curve. What is called MRT last is a mean duration of stay, worked out from the concentration-time curve. As usually defined, the AUC is the area under the concentration-time curve, a measure of exposure. Low values mean less exposure, high ones more exposure. Consider `CN(C)C(=N)N=C(N)N` [metformin hydrochloride], for which, in data set [1] (setting [14]), the “Vmax of metformin uptake” value is on record as 4.6 ± 0.6 nmol/min/mg protein. The same compound showed a half-maximal inhibitory concentration (IC50) in [2] (Mus musculus) of 1070 µM. For the same compound, in [4] (BV-2 cells), the “onset time of AMPK activation” value is recorded as 4 h and the “concentration at which activation of AMPK (p-AMPK) was observed (lowest effective)” value was 1.0 mM. Further, in data set [10], the “treatment time required to activate AMPK” value is not below 4 h. In data set [11] (intraperitoneal), this compound yielded a concentration at 1 h of 190 ± 32 ng/g and a concentration at 2 h of 110 ± 12 ng/g. Besides, in [11] (ip), the AUC(0-inf) is 1890 ± 80 ng·h/mL, the AUC(0-t) was found to be 1600 ± 180 ng·h/mL, the Cmax stood at 320 ± 80 ng/g and the MRT inf was determined as 12.2 ± 2.9 h. Further, in [11] (ip), the MRT last was 7.71 ± 0.45 h and the t max was found to be 0.5 h. Besides, the “OGD-induced neuronal injury (cell viability, MTT)” value in data set [5] is given as “did not elicit such an effect”. In [12], this compound had an AUC of 7170 ± 275 ng·h/mL, an area under the curve AUC(0-inf) of 7170 ± 280 ng·h/mL, an AUC(0-t) of 6590 ± 270 ng·h/mL and a maximum concentration (Cmax) of 6630 ± 2100 ng/mL. In [12], this compound yielded a mean residence time (MRT inf) of 6.06 ± 1.73 h, an MRT last of 3.48 ± 0.65 h and a t max of 0.5 h. For the same compound, in data set [6] (metformin measured), the CLz was 7,068.89 ± 949.45 ml/hr/kg, the Cmax worked out at 6640 ± 2110 ng/mL and the Vz was 79,683.93 ± 23,176.87 ml/kg. Further, the Michaelis-Menten constant (Km) at 15 min in data set [13] was determined as 7.1 ± 1.7 mM. For the same compound, the “atrophic volume of the ischemic brain versus vehicle” value in data set [9] is listed as “effectively reduced”.
